The record followed here is US4666886A, “Novel peptide derivatives” (Ciba-Geigy Corporation, priority 1983, dated 1987).

Square brackets hold non-standard residues; d marks the D form. Peptide text beside a SMILES is read from it. * marks the point of attachment. X2 = CCCCCCCCCCCC(=O)OC[C@H](C*)OC(=O)CCCCCCCCCCC; Palmitoyl = CCCCCCCCCCCCCCCC(=O)*

The series relates to Alveolar rat macrophages. Nature of the series: Activation of alveolar rat macrophages: specific cytotoxicity against 125I-marked tumour cells. The format is cell-based. The procedure:
Alveolar rat macrophages are obtained by lung lavage, plated out and incubated in vitro from 24 hours either with liposomes that are charged with the active ingredient, or with the active ingredient in physiological salt solution (phosphate buffered saline, PBS), ^125 I-marked tumour cells are added and incubation is continued for a further 72 hours. Subsequently the dead tumour cells are washed away and the number of tumour cells still living is determined on the basis of their radioactivity. The macrophage activation is assessed on the basis of the cytotoxicity, that is to say according to the proportion of tumour cells dead at the end of the test. The specific cytotoxicity [%] is calculated as follows: [formula] Further details of the above-mentioned test method are described in I. J. Fidler et al., J. Biol. Response Modifiers 1, 43-55 (1982).

On to `CCCCCCCCCCCCCCCC(=O)N[C@@H](CSC[C@@H](COC(=O)CCCCCCCCCCC)OC(=O)CCCCCCCCCCC)C(=O)N[C@H](C)C(=O)N[C@@H](C)C(=O)N[C@H](CCC(=O)O)C(N)=O` [R, palmitoyl-Cys(2[R], 3-dilauroyloxy-propyl)-D-Ala-Ala-D-Glu-NH2] (Palmitoyl-C(X2)[dA]A[dE]-NH2), for which the “Specific cytotoxicity [%]” value (active ingredient in 100 μg of liposomes per 0.2 ml, 0.02 μg/culture) stood at 20%; the “Specific cytotoxicity [%]” value (active ingredient in 100 μg of liposomes per 0.2 ml, 0.2 μg/culture) worked out at 18%; the “Specific cytotoxicity [%]” value (active ingredient in 100 μg of liposomes per 0.2 ml, 2 μg/culture) turned out to be 86%; the “Specific cytotoxicity [%]” value (active ingredient in 0.2 ml of PBS, 0.02 μg/culture) is 0%; the “Specific cytotoxicity [%]” value (active ingredient in 0.2 ml of PBS, 0.2 μg/culture) was determined as 84%; the “Specific cytotoxicity [%]” value (active ingredient in 0.2 ml of PBS, 2 μg/culture) came to 51%.
